Source: patent publication US20120245161A1 (SANOFI, priority 2009, published 2012)
pKi: −log10 of the molar value. Where a name gives a salt, the structure may show the parent alone.

system: β-tryptase; experiment: not given; conditions: inhaled; bronchial allergen challenge; cited from earlier work

Which “Clinical proof-of-concept for asthma” value does the source give for NC(=O)[C@@H]1CCCN1C(=O)[C@H](CCCN=C(N)N)NC(=O)c1ccc2ccccc2c1O [APC-366] here?
Its value is “Clinical proof-of-concept”.

same assay, conditions: inhaled; cited from earlier work

For NC(=O)[C@@H]1CCCN1C(=O)[C@H](CCCN=C(N)N)NC(=O)c1ccc2ccccc2c1O [APC-366], which “development outcome / tolerability” value is on record?
Its value is “terminated due to bronchial irritation”.

system: not given; experiment: not given; conditions: not given

For COCCn1cc(C(=O)N2CCC(c3cc(CN)ccc3F)CC2)c2c(C(=O)N3CCOCC3)cccc21.Cl [Example 59, [3-[4-(5-Aminomethyl-2-fluoro-phenyl)-piperidine-1-carbonyl]-1-(2-methoxy-ethyl)-1H-indol-4-yl]-morpholin-4-yl-methanone hydrochloride], which melting point is on record?
Its melting point is 142 to 147 °C.

molecular target: T1, recombinant human beta tryptase (Homo sapiens, UniProt P20231); experiment: beta-Tryptase inhibition, chromogenic enzyme assay (substrate S2366, read at 405 nm); assay type: biochemical; conditions: Ki calculated from IC50: Ki=IC50/(1+[Substrate]/Km); 0.5 mM substrate, room temperature; read-out: Tryptase Ki
T1 construct: made in house; host or cells: yeast cells
In short: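 Recombinant human beta tryptase (yeast-expressed; native lung enzyme also used), 50 ng/mL final, with 0.5 mM (2×Km) chromogenic substrate S2366; 30 min in the dark, room temperature, read at 405 nm. Compounds at 0.01-10 μM in duplicate for IC50; Ki=IC50/(1+[S]/Km).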

T1 sequence (P20231 31-275): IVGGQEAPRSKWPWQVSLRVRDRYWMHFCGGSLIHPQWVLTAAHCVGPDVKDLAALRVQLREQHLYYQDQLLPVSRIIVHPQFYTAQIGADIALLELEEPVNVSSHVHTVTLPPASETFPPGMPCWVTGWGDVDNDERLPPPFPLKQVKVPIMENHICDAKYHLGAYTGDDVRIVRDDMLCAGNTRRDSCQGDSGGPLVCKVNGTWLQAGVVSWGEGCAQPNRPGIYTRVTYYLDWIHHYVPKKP

With COCCn1cc(C(=O)N2CCC(c3cc(CN)ccc3F)CC2)c2c(C(=O)O)cccc21 [Example 109, 3-[4-(5-Aminomethyl-2-fluoro-phenyl)-piperidine-1-carbonyl]-1-(2-methoxy-ethyl)-1H-indole-4-carboxylic acid trifluoroacetate] as the compound, how does the pKi read?
Its pKi is 6.85.

With COCCn1cc(C(=O)N2CCC(c3cccc(CN)n3)CC2)c2cccc(C)c21 [Example 113, (6-Aminomethyl-3′,4′,5′,6′-tetrahydro-2′H-[2,4]bipyridinyl-1′-yl)-[1-(2-methoxy-ethyl)-7-methyl-1H-indol-3-yl]-methanone dihydrochloride] as the compound, how does the pKi read?
The pKi was 6.18.

same assay, conditions: Tryptase Ki (nM), Ki calculated from IC50: Ki=IC50/(1+[Substrate]/Km); 0.5 mM substrate, room temperature

Which Ki does the source give for COCCn1cc(C(=O)N2CCC(c3cc(CN)ccc3F)CC2)c2c(C(=O)N3CCOCC3)cccc21.Cl [Example 59, [3-[4-(5-Aminomethyl-2-fluoro-phenyl)-piperidine-1-carbonyl]-1-(2-methoxy-ethyl)-1H-indol-4-yl]-morpholin-4-yl-methanone hydrochloride] here?
The Ki was 32 nM.

Which Ki does the source give for COCCn1cc(C(=O)N2CCC(c3cc(CN)ccc3F)CC2)c2c(NS(=O)(=O)N(C)C)cccc21 [Example 104, Dimethylamino-1-sulfonic acid [3-[4-(5-aminomethyl-2-fluoro-phenyl)-piperidine-1-carbonyl]-1-(2-methoxy-ethyl)-1H-indol-4-yl]-amide] here?
Its Ki is 204 nM.

For COCCn1cc(C(=O)N2CCC(c3cc(CN)ccc3F)CC2)c2c(NS(=O)(=O)c3cn(C)cn3)cccc21 [Example 105, 1-Methyl-1H-imidazole-4-sulfonic acid [3-[4-(5-aminomethyl-2-fluoro-phenyl)-piperidine-1-carbonyl]-1-(2-methoxy-ethyl)-1H-indol-4-yl]-amide hydrochloride], which Ki is on record?
Its Ki is 100 nM.

With COCCn1cc(C(=O)N2CCC(c3cc(CN)ccc3F)CC2)c2c(NS(=O)(=O)c3cccnc3)cccc21 [Example 106, Pyridine-3-sulfonic acid [3-[4-(5-aminomethyl-2-fluoro-phenyl)-piperidine-1-carbonyl]-1-(2-methoxy-ethyl)-1H-indol-4-yl]-amide hydrochloride] as the compound, how does the Ki read?
Its Ki is 149 nM.

With CCCCS(=O)(=O)Nc1cccc2c1c(C(=O)N1CCC(c3cc(CN)ccc3F)CC1)cn2CCOC [Example 107, Butane-1-sulfonic acid [3-[4-(5-aminomethyl-2-fluoro-phenyl)-piperidine-1-carbonyl]-1-(2-methoxy-ethyl)-1H-indol-4-yl]-amide hydrochloride] as the compound, how does the Ki read?
The Ki was 315 nM.

For COCCn1cc(C(=O)N2CCC(c3cc(CN)ccc3F)CC2)c2c(C(=O)N3CCCC3)cccc21 [Example 108, [4-(5-Aminomethyl-2-fluoro-phenyl)-piperidin-1-yl]-[1-(2-methoxy-ethyl)-4-(pyrrolidine-1-carbonyl)-1H-indol-3-yl]-methanone hydrochloride], which Ki is on record?
The Ki was 15 nM.

Which Ki does the source give for COCCn1cc(C(=O)N2CCC(c3cc(CN)ccc3C(F)(F)F)CC2)c2cccc(C)c21 [Example 110, [4-(5-Aminomethyl-2-trifluoromethyl-phenyl)-piperidin-1-yl]-[1-(2-methoxy-ethyl)-7-methyl-1H-indol-3-yl]-methanone hydrochloride] here?
The Ki was 1260 nM.

For COCCn1cc(C(=O)N2CCC(c3cc(CN)c(F)cc3F)CC2)c2cccc(C)c21 [Example 111, [4-(5-Aminomethyl-2,4-difluoro-phenyl)-piperidin-1-yl]-[1-(2-methoxy-ethyl)-7-methyl-1H-indol-3-yl]-methanone hydrochloride], which Ki is on record?
The Ki was 1020 nM.

Which Ki does the source give for COCCn1cc(C(=O)N2CCC(c3ccc(F)c(CN)c3)CC2)c2cccc(C)c21 [Example 112, [4-(3-Aminomethyl-4-fluoro-phenyl)-piperidin-1-yl]-[1-(2-methoxy-ethyl)-7-methyl-1H-indol-3-yl]-methanone hydrochloride] here?
Its Ki is 998 nM.

Which Ki does the source give for CCCCOc1ccc(CN)cc1C1CCN(C(=O)c2cn(CCOC)c3c(C)cccc23)CC1 [Example 114, [4-(5-Aminomethyl-2-butoxy-phenyl)-piperidin-1-yl]-[1-(2-methoxy-ethyl)-7-methyl-1H-indol-3-yl]-methanone hydrochloride] here?
The Ki was 526 nM.

For COCCn1cc(C(=O)N2CCC(c3cc(CN)ccc3OCCc3ccccc3)CC2)c2cccc(C)c21 [Example 115, [4-(5-Aminomethyl-2-phenethyloxy-phenyl)-piperidin-1-yl]-[1-(2-methoxy-ethyl)-7-methyl-1H-indol-3-yl]-methanone hydrochloride], which Ki is on record?
Its Ki is 390 nM.

For COCCn1cc(C(=O)N2CCC(c3cc(F)cc(CN)c3)CC2)c2cccc(C)c21 [Example 116, [4-(5-Aminomethyl-3-fluoro-phenyl)-piperidin-1-yl]-[1-(2-methoxy-ethyl)-7-methyl-1H-indol-3-yl]-methanone hydrochloride], which Ki is on record?
Its Ki is 746 nM.

With COCCn1cc(C(=O)N2CCC(c3cccc(CN)c3F)CC2)c2cccc(C)c21 [Example 117, [4-(3-Aminomethyl-2-fluoro-phenyl)-piperidin-1-yl]-[1-(2-methoxy-ethyl)-7-methyl-1H-indol-3-yl]-methanone hydrochloride] as the compound, how does the Ki read?
Its Ki is 756 nM.

With COCCn1cc(C(=O)N2CCC(c3ccc(Cl)c(CN)c3)CC2)c2cccc(C)c21 [Example 118, [4-(3-Aminomethyl-4-chloro-phenyl)-piperidin-1-yl]-[1-(2-methoxy-ethyl)-7-methyl-1H-indol-3-yl]-methanone hydrochloride] as the compound, how does the Ki read?
The Ki was 832 nM.

Which Ki does the source give for COCCn1cc(C(=O)N2CCC(c3cc(CN)ccn3)CC2)c2cccc(C)c21 [Example 119, (4-Aminomethyl-3′,4′,5′,6′-tetrahydro-2′H-[2,4′]bipyridinyl-1′-yl)-[1-(2-methoxy-ethyl)-7-methyl-1H-indol-3-yl]-methanone hydrochloride] here?
The Ki was 180 nM.

For COCCn1cc(C(=O)N2CCC(c3cc(CN)ccc3F)CC2)c2c(NC(=O)c3cccc4c3OCC4)cccc21 [Example 120, 2,3-Dihydro-benzofuran-7-carboxylic acid [3-[4-(5-aminomethyl-2-fluoro-phenyl)-piperidine-1-carbonyl]-1-(2-methoxy-ethyl)-1H-indol-4-yl]-amide hydrochloride], which Ki is on record?
Its Ki is 3 nM.

Which Ki does the source give for COCCn1cc(C(=O)N2CCC(c3cc(CN)ccc3F)CC2)c2c(NC(=O)c3cc4cccc(C)c4[nH]3)cccc21 [Example 121, 7-Methyl-1H-indole-2-carboxylic acid [3-[4-(5-aminomethyl-2-fluoro-phenyl)-piperidine-1-carbonyl]-1-(2-methoxy-ethyl)-1H-indol-4-yl]-amide dihydrochloride] here?
Its Ki is 99 nM.

Which Ki does the source give for COCCn1cc(C(=O)N2CCC(c3cc(CN)ccc3F)CC2)c2c(NC(=O)C3CCCN(C)C3)cccc21 (stereo not shown) [Example 122, 1-Methyl-piperidine-3-carboxylic acid [3-[4-(5-aminomethyl-2-fluoro-phenyl)-piperidine-1-carbonyl]-1-(2-methoxy-ethyl)-1H-indol-4-yl]-amide hydrochloride] here?
The Ki was 44 nM.

For COCCn1cc(C(=O)N2CCC(c3cc(CN)ccc3F)CC2)c2c(C(=O)NC3CC3)cccc21 [Example 123, 3-[4-(5-Aminomethyl-2-fluoro-phenyl)-piperidine-1-carbonyl]-1-(2-methoxy-ethyl)-1H-indole-4-carboxylic acid cyclopropylamide hydrochloride], which Ki is on record?
The Ki was 50 nM.

With COCCn1cc(C(=O)N2CCC(c3cc(CN)ccc3F)CC2)c2c(NC(=O)c3cnco3)cccc21 [Example 124, Oxazole-5-carboxylic acid [3-[4-(5-aminomethyl-2-fluoro-phenyl)-piperidine-1-carbonyl]-1-(2-methoxy-ethyl)-1H-indol-4-yl]-amide hydrochloride] as the compound, how does the Ki read?
Its Ki is 8 nM.
